Laboratory results reported in patent publication US20070111251A1, “Chemical address tags” (priority 2003, published 2007).

test system: HeLa cells; assay: Kinetic imaging of NBD-triazine probe uptake and sequestration, fitted to nested two-compartment transport model; assay type: cell-based; settings: median over optimal solutions within 5% of the best fit
Protocol: In living cells, image data was simultaneously acquired with an automated, high-content, kinetic screening instrument equipped with an environmental chamber (see, e.g., V. C. Abraham, D. L. Taylor and J. R. Haskins, Trends in Biotechnology 22, 15 (2004); herein incorporated by reference in its entirety), as cells were incubated with the fluorescent molecules and after removal of extracellular probe. Data was analyzed off line, using an image analysis algorithm to measure the statistical pixel intensity distribution associated with fluorescence probe sequestration in the perinuclear region (see, e.g., FIG. 21; see also, e.g., G. J. Ding et al., Journal of Biological Chemistry 273, 28897 (1998); herein incorporated by reference in its entirety). Data was parametrized with a nested, two-compartment, transport model (see, e.g., W. E. Evans, J. J. Schentag and W. J. Jusko., Applied Pharmacokinetics: Principles of Therapeutic Drug Monitoring (Lippincott Williams & Wilkins, Vancouver, W.A., 1992); herein incorporated by reference in its entirety), using a statistical link function to relate the kinetic coefficient of variation (CV) of pixel intensities in the images with the concentration of probe in vesicles and cytoplasm. Optimal kinetic parameters fitting the experimental data for each probe to the system described by the two-compartment model and statistical link function were determined using the simulated annealing technique (see, e.g., M. Pincus., Oper. Res. 18, 1225 (1979); herein incorporated by reference in its entirety). The present invention is not limited to a particular mechanism. Indeed, an understanding of the mechanism is not necessary to practice the present invention.
To assess how well the model accounts for all the different kinetic traces acquired, a “PVE” (proportion of variance explained) by the model was calculated. The PVE is one minus the ratio of the sum of squared differences between observed and fitted values to the sum of squared differences between observed values and their mean. PVE values close to one indicate good fit to the nested two-compartment model. The average PVE across the probes was 0.92, with >50% of the probes yielded PVE values […]. The present invention is not limited to a particular mechanism. Indeed, an understanding of the mechanism is not necessary to practice the present invention.
Cell culture. HeLa cells were grown in RPMI+10% FCS in a 5% CO2 atmosphere at 37° C. and plated in 96-well plates at a density of 3000 cells/well 24 hours prior to the start of the experiment.
Kinetic Imaging. For influx experiments, cells on 96-well plates were switched to imaging media consisting of RPMI containing 1.0 mM Bromophenol Blue—a soluble, cell-impermeant chromophore used to suppress excitation and emission of extracellular (background) dye fluorescence-, 10 μM probe and 0.1 μM Hoescht 33258 to label the cell nuclei. Plates were then transferred to a KineticScan instrument (Cellomics, Inc., Pittsburgh, Pa.), which contains an environmentally controlled CO2/temperature/humidity chamber, and data was acquired with a 20× objective lens. Images acquisition began approximately 10 min after dye addition, using the Hoescht channel to acquire nuclear images and FITC channel to acquire the NBD image. Plate-scanning mode was used for scanning, in which the instrument builds time-stacks of images by scanning the plate multiple times, returning to the same site of the plate at every scan. For efflux experiments, dye-containing media was removed from the wells of the plate. The wells were washed twice with fresh RPMI medium, imaging media was added, and image acquisition restarted 7 min after the dye-containing media was removed. The last time points of the influx experiment served as the first time point of the efflux experiment. Plates were scanned for approximately two hours in the influx experiment and six hours for the efflux experiment, with each well imaged on average every 7 minutes. […]

Compound | median Pap(cyto) (apparent partition coefficient between extracellular medium and cytosol) | median Pap(ves) (apparent partition coefficient between cytosol and intracellular vesicles, k(ves)in/k(ves)out)
COc1ccc(CCNc2nc(NCCCCCCNc3ccc([N+](=O)[O-])c4nonc34)nc(NC3CCC(C)CC3)n2)cc1 (stereo not shown) [Compound D4] | 99.03 | 0.22
COc1ccc(CCNc2nc(NCCCCCCNc3ccc([N+](=O)[O-])c4nonc34)nc(NC3CCCCC3C)n2)cc1 (stereo not shown) [Compound D5] | 9.15 | 13.58
COc1ccc(CCNc2nc(NCCCCCCNc3ccc([N+](=O)[O-])c4nonc34)nc(NCC3CCCCC3)n2)cc1 [Compound D6] | 141.76 | 0.24
COc1ccc(CCNc2nc(NCCCCCCNc3ccc([N+](=O)[O-])c4nonc34)nc(NC3CCCCC3)n2)cc1 [Compound D7] | 8.37 | 28.56
COc1ccc(CCNc2nc(NCCCCCCNc3ccc([N+](=O)[O-])c4nonc34)nc(NCCC(C)C)n2)cc1 [Compound D8] | 236.99 | 0.24
COc1ccc(CCNc2nc(NCCCCCCNc3ccc([N+](=O)[O-])c4nonc34)nc(NCCc3ccccc3)n2)cc1 [Compound D10] | 9.41 | 13.79
CC(C)Nc1nc(NCCCCCCNc2ccc([N+](=O)[O-])c3nonc23)nc(NCc2cccc(F)c2)n1 [Compound E2] | 49.62 | 8.43
CCCCCCCCNc1nc(NCCCCCCNc2ccc([N+](=O)[O-])c3nonc23)nc(NCc2cccc(F)c2)n1 [Compound E3] | 4.14 | 19.86
CC1CCC(Nc2nc(NCCCCCCNc3ccc([N+](=O)[O-])c4nonc34)nc(NCc3cccc(F)c3)n2)CC1 (stereo not shown) [Compound E4] | 11.91 | 16.46
CC1CCCCC1Nc1nc(NCCCCCCNc2ccc([N+](=O)[O-])c3nonc23)nc(NCc2cccc(F)c2)n1 (stereo not shown) [Compound E5] | 5.98 | 29.55
O=[N+]([O-])c1ccc(NCCCCCCNc2nc(NCc3cccc(F)c3)nc(NCC3CCCCC3)n2)c2nonc12 [Compound E6] | 10.29 | 20.28
O=[N+]([O-])c1ccc(NCCCCCCNc2nc(NCc3cccc(F)c3)nc(NC3CCCCC3)n2)c2nonc12 [Compound E7] | 8.70 | 16.57
CC(C)CCNc1nc(NCCCCCCNc2ccc([N+](=O)[O-])c3nonc23)nc(NCc2cccc(F)c2)n1 [Compound E8] | 12.09 | 11.21
O=[N+]([O-])c1ccc(NCCCCCCNc2nc(NCCc3ccccn3)nc(NCc3cccc(F)c3)n2)c2nonc12 [Compound E9] | 225.98 | 0.37
O=[N+]([O-])c1ccc(NCCCCCCNc2nc(NCCc3ccccc3)nc(NCc3cccc(F)c3)n2)c2nonc12 [Compound E10] | 5.10 | 14.90
O=[N+]([O-])c1ccc(NCCCCCCNc2nc(NCCc3ccccc3)nc(NCCC(c3ccccc3)c3ccccc3)n2)c2nonc12 [Compound F10] | 1.44 | 53.44

Second part, the compound after the results:

median Pap(cyto) (apparent partition coefficient between extracellular medium and cytosol) | median Pap(ves) (apparent partition coefficient between cytosol and intracellular vesicles, k(ves)in/k(ves)out) | Compound
79.42 | 0.34 | CC(C)Nc1nc(NCCCCCCNc2ccc([N+](=O)[O-])c3nonc23)nc(NCCC(c2ccccc2)c2ccccc2)n1 [Compound F2]
21.91 | 9.79 | CCCCCCCCNc1nc(NCCCCCCNc2ccc([N+](=O)[O-])c3nonc23)nc(NCCC(c2ccccc2)c2ccccc2)n1 [Compound F3]
1.89 | 43.56 | CC1CCC(Nc2nc(NCCCCCCNc3ccc([N+](=O)[O-])c4nonc34)nc(NCCC(c3ccccc3)c3ccccc3)n2)CC1 (stereo not shown) [Compound F4]
6.71 | 21.53 | CC1CCCCC1Nc1nc(NCCCCCCNc2ccc([N+](=O)[O-])c3nonc23)nc(NCCC(c2ccccc2)c2ccccc2)n1 (stereo not shown) [Compound F5]
6.76 | 19.41 | O=[N+]([O-])c1ccc(NCCCCCCNc2nc(NCCC(c3ccccc3)c3ccccc3)nc(NCC3CCCCC3)n2)c2nonc12 [Compound F6]
3.33 | 8.01 | O=[N+]([O-])c1ccc(NCCCCCCNc2nc(NCCC(c3ccccc3)c3ccccc3)nc(NC3CCCCC3)n2)c2nonc12 [Compound F7]
65.86 | 10.07 | CC(C)CCNc1nc(NCCCCCCNc2ccc([N+](=O)[O-])c3nonc23)nc(NCCC(c2ccccc2)c2ccccc2)n1 [Compound F8]
12.30 | 12.14 | CCCCNc1nc(NCCCCCCNc2ccc([N+](=O)[O-])c3nonc23)nc(NCc2ccc(C)cc2)n1 [Compound G1]
211.16 | 0.28 | Cc1ccc(CNc2nc(NCCCCCCNc3ccc([N+](=O)[O-])c4nonc34)nc(NC(C)C)n2)cc1 [Compound G2]
0.95 | 43.97 | CCCCCCCCNc1nc(NCCCCCCNc2ccc([N+](=O)[O-])c3nonc23)nc(NCc2ccc(C)cc2)n1 [Compound G3]
23.97 | 4.01 | Cc1ccc(CNc2nc(NCCCCCCNc3ccc([N+](=O)[O-])c4nonc34)nc(NC3CCC(C)CC3)n2)cc1 (stereo not shown) [Compound G4]
57.45 | 8.94 | Cc1ccc(CNc2nc(NCCCCCCNc3ccc([N+](=O)[O-])c4nonc34)nc(NC3CCCCC3C)n2)cc1 (stereo not shown) [Compound G5]
35.66 | 10.12 | Cc1ccc(CNc2nc(NCCCCCCNc3ccc([N+](=O)[O-])c4nonc34)nc(NCC3CCCCC3)n2)cc1 [Compound G6]
